From ChEMBL document CHEMBL1201862, “PubChem BioAssay data set” (2004)
Active and inactive are the calls of the source.

What was measured:
[1] = molecular target: T1, Tyrosine-protein phosphatase non-receptor type 7 (Homo sapiens, UniProt P35236); format: functional
T1 sequence (P35236 whole entry): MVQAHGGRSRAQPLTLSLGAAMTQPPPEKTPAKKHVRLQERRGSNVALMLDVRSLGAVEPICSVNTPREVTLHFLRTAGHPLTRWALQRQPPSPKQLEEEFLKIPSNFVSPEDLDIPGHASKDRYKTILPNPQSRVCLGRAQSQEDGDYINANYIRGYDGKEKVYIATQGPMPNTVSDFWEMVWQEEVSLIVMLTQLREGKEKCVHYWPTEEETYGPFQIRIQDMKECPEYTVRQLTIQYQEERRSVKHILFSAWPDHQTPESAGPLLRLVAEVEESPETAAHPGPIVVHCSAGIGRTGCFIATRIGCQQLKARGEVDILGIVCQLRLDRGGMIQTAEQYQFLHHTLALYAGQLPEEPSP

[2] = molecular target: T2, Zinc finger protein mex-5 (Caenorhabditis elegans, UniProt Q9XUB2); assay: potency of MEX-5 RNA-binding blockers – biochemical, C. elegans, fluorescence polarization, dose response (AID 1960)
T2 sequence (Q9XUB2 whole entry): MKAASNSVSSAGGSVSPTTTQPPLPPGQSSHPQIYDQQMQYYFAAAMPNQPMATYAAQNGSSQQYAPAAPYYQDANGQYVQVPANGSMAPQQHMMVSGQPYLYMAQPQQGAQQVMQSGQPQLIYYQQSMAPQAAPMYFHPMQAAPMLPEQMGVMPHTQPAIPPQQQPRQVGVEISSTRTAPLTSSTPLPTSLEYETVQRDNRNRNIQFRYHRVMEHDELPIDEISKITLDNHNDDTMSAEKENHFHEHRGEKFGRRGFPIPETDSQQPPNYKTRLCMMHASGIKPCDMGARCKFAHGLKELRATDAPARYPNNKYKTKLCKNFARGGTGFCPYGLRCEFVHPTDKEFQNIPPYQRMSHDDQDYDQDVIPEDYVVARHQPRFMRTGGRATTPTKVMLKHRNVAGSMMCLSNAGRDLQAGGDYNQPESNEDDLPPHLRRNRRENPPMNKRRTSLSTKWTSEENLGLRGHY

[3] = molecular target: Heat shock cognate 71 kDa protein (Homo sapiens, UniProt P11142); assay: In Vitro Hsc70 Dose Response Fluorescence Polarization Assay. [Related pubchem assays: 1072 ]
[4] = molecular target: T3, Dual specificity protein phosphatase 6 (Rattus norvegicus, UniProt Q64346); format: functional
T3 sequence (Q64346 whole entry): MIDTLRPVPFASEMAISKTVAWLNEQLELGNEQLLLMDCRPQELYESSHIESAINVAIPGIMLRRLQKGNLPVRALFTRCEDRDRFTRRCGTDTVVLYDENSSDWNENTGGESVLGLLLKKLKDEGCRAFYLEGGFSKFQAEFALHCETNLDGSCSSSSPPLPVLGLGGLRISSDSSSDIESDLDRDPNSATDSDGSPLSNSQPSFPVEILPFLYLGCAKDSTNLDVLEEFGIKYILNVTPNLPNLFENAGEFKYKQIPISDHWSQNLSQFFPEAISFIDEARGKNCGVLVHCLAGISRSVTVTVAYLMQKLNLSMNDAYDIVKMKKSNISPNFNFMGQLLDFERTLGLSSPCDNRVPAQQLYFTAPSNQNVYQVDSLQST

[5] = molecular target: Heat shock 70 kDa protein 1A (Homo sapiens, UniProt P0DMV8); assay: inhibition of Hsp70 binding activity – biochemical, fluorescence polarization, SAR follow-up (AID 1072)
[6] = molecular target: Glyceraldehyde-3-phosphate dehydrogenase (Homo sapiens, UniProt P04406)
[7] = molecular target: T4, RNA-binding protein pos-1 (Caenorhabditis elegans, UniProt G5EF15); assay: disruptors of C. elegans POS-1 RNA interaction – biochemical, fluorescence polarization, dose response (AID 1964);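 further: purified POS-1 fused to maltose binding protein made in E. coli; potency of compounds blocking POS-1 binding to fluorescent RNA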
T4 sequence (G5EF15 whole entry): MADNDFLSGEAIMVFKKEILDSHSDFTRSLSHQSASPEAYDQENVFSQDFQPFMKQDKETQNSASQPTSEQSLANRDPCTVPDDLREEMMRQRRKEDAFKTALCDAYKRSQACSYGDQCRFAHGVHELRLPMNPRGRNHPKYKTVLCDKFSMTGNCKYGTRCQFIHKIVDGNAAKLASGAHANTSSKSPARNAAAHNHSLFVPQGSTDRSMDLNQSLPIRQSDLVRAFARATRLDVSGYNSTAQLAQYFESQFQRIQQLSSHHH

[8] = molecular target: T3, Dual specificity protein phosphatase 6
[9] = PAR1 agonist-induced platelet activation inhibition – cell-based, fluorescence, flow cytometry, human platelets, dose response (AID 2511); format: functional
[10] = blockers of SFLLRN-triggered platelet ATP secretion – cell-based, human platelets, luminescence, dry powder, dose response (AID 493100); format: functional
[11] = SFLLRN-induced P-Selectin Platelet Surface Expression Measured in Cell-Based System Using Flow Cytometry - 2016-03_Inhibitor_Dose_DryPowder_Activity_Set3. [Related pubchem assays (depositor defined):AID1678]; format: functional
[12] = molecular target: Luciferin 4-monooxygenase (Photinus pyralis, UniProt P08659); assay: inhibition of purified Photinus pyralis luciferase – biochemical, luminescence, dose response (AID 1891)
[13] = Luminescence Cell-Based Dose Confirmation HTS to Identify Inhibitors of Platelet Dense Granule Release. [Related pubchem assays: 1663 (Primary HTS), 1678 (Summary of Project)]; format: functional
[14] = Luminescence Cell-Based Dose Response Follow up to Identify Inhibitors of Platelet Dense Granule Release. [Related pubchem assays (depositor defined):AID1663, AID1678, AID1889, AID2519]; format: functional
[15] = alpha-synuclein stem-loop luciferase translation blockers – H4 neuroglioma cells, luminescence, confirmation (AID 1988); format: functional, cell-based
[16] = molecular target: T5, Microphthalmia-associated transcription factor (Homo sapiens, UniProt O75030); assay: reducers of TRPM1 reporter luminescence, concentration series – cell-based, SK-MEL-5, cherry-picked, set 3, MITF inhibitor project, dose response (AID 493073); format: functional;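 further: SK-MEL-5 melanoma cells with luciferase driven by the MITF target TRPM1 promoter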
T5 sequence (O75030 whole entry): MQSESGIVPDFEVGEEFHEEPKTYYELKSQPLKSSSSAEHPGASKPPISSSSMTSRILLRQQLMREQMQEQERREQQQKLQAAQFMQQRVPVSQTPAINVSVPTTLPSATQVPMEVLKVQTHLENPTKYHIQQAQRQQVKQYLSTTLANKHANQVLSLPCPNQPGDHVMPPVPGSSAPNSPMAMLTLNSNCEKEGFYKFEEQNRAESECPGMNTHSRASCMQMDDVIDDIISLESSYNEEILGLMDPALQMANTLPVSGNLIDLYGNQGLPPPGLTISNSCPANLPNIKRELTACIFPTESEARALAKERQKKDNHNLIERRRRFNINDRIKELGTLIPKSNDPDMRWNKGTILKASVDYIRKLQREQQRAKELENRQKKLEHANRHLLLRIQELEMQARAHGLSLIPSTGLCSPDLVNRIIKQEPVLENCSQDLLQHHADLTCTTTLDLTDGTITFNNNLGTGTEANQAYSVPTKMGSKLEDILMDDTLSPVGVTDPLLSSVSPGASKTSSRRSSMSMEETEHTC

[17] = Luminescence Cell-Based Dose Retest to Confirm Inhibitors of Cancer Stem Cells. [Related pubchem assays (depositor defined):AID2717, AID2721]; format: functional; details: Homo sapiens
[18] = Luminescence Cell-Based Dose Response HTS to Identify Inhibitors of 5'UTR Stem-Loop Driven Prion Protein mRNA Translation in H4 Neuroglioblastoma Cells. [Related pubchem assays: 1827 (Project Summary), 1813 (Primary HTS)]; format: functional
A-375 = assay: MITF: Counter assay: A375 proliferation Measured in Cell-Based System Using Plate Reader - 2084-03_Inhibitor_Dose_DryPowder_Activity. [Related pubchem assays (depositor defined):AID488944]; format: functional; details: Homo sapiens
[19] = luciferase reporter signal suppression in cells – H4 neuroglioma cells, luminescence, dose response (AID 1990); format: functional, cell-based
Escherichia coli = assay: microbe, parasite or virus in culture

Sequence of Luciferin 4-monooxygenase (P08659 whole entry): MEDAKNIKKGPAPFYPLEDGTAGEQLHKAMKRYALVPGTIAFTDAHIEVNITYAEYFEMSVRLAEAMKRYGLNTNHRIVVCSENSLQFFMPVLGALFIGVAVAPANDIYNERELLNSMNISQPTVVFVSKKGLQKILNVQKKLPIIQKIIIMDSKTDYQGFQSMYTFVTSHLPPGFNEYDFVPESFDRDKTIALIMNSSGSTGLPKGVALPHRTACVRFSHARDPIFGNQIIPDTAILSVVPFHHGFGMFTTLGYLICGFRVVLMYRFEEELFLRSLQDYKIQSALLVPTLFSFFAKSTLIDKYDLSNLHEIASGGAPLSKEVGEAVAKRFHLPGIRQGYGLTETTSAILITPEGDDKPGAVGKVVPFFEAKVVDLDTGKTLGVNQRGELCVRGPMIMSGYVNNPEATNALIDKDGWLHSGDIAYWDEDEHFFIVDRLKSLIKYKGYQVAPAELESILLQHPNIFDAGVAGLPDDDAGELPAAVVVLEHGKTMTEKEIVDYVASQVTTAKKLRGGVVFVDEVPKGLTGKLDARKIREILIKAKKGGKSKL
Sequence of Glyceraldehyde-3-phosphate dehydrogenase (P04406 whole entry, the tested form may be a part): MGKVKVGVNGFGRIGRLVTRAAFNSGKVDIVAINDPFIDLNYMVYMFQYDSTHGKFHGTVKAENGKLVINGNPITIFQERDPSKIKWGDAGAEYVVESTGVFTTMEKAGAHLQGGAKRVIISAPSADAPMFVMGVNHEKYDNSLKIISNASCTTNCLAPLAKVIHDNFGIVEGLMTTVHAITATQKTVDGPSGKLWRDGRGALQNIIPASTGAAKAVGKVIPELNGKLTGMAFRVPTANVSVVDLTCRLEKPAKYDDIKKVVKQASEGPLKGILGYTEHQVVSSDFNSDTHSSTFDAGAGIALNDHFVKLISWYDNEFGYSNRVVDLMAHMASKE
Sequence of Heat shock 70 kDa protein 1A (P0DMV8 whole entry): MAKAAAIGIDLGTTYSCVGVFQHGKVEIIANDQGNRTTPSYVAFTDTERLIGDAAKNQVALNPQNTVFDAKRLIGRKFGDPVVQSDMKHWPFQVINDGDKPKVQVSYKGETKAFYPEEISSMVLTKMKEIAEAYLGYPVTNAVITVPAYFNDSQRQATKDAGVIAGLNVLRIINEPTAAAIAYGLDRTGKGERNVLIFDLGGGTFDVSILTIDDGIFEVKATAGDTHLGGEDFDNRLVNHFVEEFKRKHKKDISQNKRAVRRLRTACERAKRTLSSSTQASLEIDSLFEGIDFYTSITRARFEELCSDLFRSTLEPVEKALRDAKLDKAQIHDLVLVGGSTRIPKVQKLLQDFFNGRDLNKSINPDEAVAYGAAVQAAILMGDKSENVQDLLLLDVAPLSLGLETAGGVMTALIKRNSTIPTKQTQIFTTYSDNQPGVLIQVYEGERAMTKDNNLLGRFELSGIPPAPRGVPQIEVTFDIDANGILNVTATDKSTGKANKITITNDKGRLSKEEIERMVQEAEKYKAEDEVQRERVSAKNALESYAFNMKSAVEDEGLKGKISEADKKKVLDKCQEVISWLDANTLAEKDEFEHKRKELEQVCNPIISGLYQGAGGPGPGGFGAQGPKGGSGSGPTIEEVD
Sequence of Heat shock cognate 71 kDa protein (P11142 whole entry): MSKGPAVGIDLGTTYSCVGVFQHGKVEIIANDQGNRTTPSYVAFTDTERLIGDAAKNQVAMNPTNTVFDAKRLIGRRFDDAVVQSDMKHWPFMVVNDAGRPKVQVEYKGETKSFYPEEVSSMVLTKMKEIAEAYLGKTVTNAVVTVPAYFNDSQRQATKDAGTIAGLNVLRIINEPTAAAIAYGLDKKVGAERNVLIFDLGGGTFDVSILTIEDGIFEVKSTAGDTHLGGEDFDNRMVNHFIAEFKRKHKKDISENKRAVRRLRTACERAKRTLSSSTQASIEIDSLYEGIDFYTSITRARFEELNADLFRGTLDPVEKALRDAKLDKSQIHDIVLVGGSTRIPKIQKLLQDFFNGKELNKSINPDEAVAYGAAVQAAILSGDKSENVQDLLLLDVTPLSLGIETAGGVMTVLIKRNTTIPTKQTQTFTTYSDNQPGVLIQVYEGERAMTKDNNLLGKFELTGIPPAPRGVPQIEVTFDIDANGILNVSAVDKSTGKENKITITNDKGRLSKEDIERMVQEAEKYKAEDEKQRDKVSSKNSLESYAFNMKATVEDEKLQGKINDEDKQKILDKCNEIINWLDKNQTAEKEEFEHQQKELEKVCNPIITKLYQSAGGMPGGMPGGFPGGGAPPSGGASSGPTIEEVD

## O=C(O)C1Nc2c(cccc2C(F)(F)F)C2C=CCC12 (stereo unspecified)
[1]
  IC50: 5.06 µM (active)
[2]
  EC50: 17.7 µM (active)
[3]
  IC50: 20.2 µM (active)
[4]
  IC50: 7.72 µM (active)
[5]
  IC50: 8.36 µM (active)
[6]
  IC50: > 100 µM (not active)
[7]
  EC50: 26.7 µM (active)
[8]
  IC50: 9.2 µM (active)

## CCCC(=O)Nc1cccc(NC(=O)c2ccccc2Br)c1
[9]
  EC50: < 0.3 µM (active)
[10]
  AC50: 11.2 µM (active)
[11]
  AC50: < 0.156 µM (active)
[12]
  EC50: > 112 µM (not active)
[13]
  EC50: 1.87 µM (active)
[14]
  EC50: 4.87 µM (active)

## CC(=O)Nc1sc(C)c(C)c1C(=O)OCC(=O)N(CC(C)C)c1c(N)n(Cc2ccccc2)c(=O)[nH]c1=O
[15]
  EC50: 3.96 µM (active)
[16]
  AC50: 5.29 µM (active)
[17]
  AC50: 1.64 µM (active)
[18]
  EC50: 9.81 µM (active)
A-375
  AC50: 7.68 µM (active)
[19]
  EC50: 10.2 µM (active)

## CCCCOC(=O)C1=C(C)NC(=O)NC1c1ccc2c(c1)OCO2 (stereo unspecified)
Escherichia coli
  AC50: 23.6 µM (active)
